These results are taken from patent publication US10098975B2, “Labeled pkg-1-alpha-binding compounds and their use in imaging and quantifying pain” (THE TRUSTEES OF COLUMBIA UNIVERSITY IN THE CITY OF NEW YORK, priority 2013, dated 2018).

What is called IC50 is the concentration that inhibits the measured activity by half.

The test system of series [1] is neuroma pain. The series is described as follows: Tibial neuroma transposition model of neuroma pain in rats. The class given is in vivo. Conditions: transected tibial nerve transposed beneath ankle skin. The text has this: (§1) Evaluation of neuroma pain was made possible with the advent of a novel protocol in rats whereby the end of a transected tibial nerve is transposed and then anchored just beneath the skin of the ankle. This allows the allodynia from the neuroma to be evaluated by systematically applying pressure to the overlying skin and observing whether the rat raises the leg.

In series [2] the target is T1, PKG (Homo sapiens, UniProt Q13976).
T1 sequence (Q13976 1-671): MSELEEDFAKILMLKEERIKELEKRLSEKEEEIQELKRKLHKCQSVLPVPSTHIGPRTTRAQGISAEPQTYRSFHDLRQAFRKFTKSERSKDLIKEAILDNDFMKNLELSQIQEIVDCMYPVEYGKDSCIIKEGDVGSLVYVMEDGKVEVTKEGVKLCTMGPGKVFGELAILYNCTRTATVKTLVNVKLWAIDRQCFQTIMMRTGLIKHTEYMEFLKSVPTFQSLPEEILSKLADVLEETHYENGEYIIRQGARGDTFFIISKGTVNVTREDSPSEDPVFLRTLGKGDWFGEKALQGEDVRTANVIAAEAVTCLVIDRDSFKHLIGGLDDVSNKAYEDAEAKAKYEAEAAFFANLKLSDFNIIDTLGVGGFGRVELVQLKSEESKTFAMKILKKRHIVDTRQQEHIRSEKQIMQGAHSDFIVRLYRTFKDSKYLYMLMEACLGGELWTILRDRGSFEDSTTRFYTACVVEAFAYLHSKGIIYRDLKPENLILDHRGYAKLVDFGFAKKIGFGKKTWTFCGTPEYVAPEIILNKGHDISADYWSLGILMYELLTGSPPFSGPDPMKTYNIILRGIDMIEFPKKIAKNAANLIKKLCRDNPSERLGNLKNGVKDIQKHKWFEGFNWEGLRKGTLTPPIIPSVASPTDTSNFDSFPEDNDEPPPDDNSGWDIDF
The series is described as follows: IC50 of NOP46 for PKG. The class given is biochemical.

Series [3] in a line: Microsome preparations (metabolism). In kind it is in vitro ADME.
Series [4] can be described thus: Clearance from circulation after intravenous injection. The class given is in vivo. The conditions noted are these: following intravenous injection.
Series [5] relates to models of chronic pain. The series is described as follows: Rat models of chronic pain (mechanical allodynia, thermal hyperalgesia). In kind it is in vivo. The conditions noted are these: injected into rats, FIG. 6.
Excerpt: as §1

Series [6] is described as follows: Stability in blood in vitro. The class given is in vitro ADME.
Series [7] is described as follows: Distribution to dorsal root ganglion and CNS after injection. In kind it is in vivo.
Series [8] in a line: Tissue distribution studies. Conditions: initial levels. The class given is in vivo.
Series [9] has as its target Protein Kinase A (PKA) (Homo sapiens, UniProt P17612). The series is described as follows: IC50 of NOP46 for Protein Kinase A. In kind it is biochemical.
Series [10] has as its target T2, PKG1alpha(h) (Homo sapiens, UniProt Q13976).
T2 sequence (Q13976 1-671): T1 sequence (Q13976 1-671)
The series is described as follows: Kinase panel (287 kinases, optimal ATP): PKG1alpha(h). The class given is biochemical. The conditions noted are these: assayed in 287 kinases at their optimal ATP concentrations. On the procedure: Its kinase inhibiting activity was assayed in 287 kinases at their optimal ATP concentrations. Members of all the kinome families were represented.

Turning to `CCCOc1ccc(OC)c(F)c1C(=O)c1ccc(C(=O)N[C@@H]2CNC[C@H]2NC(=O)c2ccc3[nH]ncc3c2)cc1` [NOP46, N-((3R,4R)-4-(4-(2-fluoro-3-methoxy-6-propoxybenzoyl)benzamido)pyrrolidin-3-yl)-1H-indazole-5-carboxamide], the Neuroma pain result in series [1] is “alleviates neuroma pain”. For the same compound, the half-maximal inhibitory concentration (IC50) in [2] worked out at 0.0075 µM. Also, the “Kinetic analysis: mode of inhibition” value in series [2] (with respect to the ATP site) was “non-competitive inhibitor of the ATP site”. Moreover, the Metabolic degradation pathway result in [3] is “degraded by carbonyl reduction and depropylation”. Moreover, the “Clearance from the circulation” value in series [4] is listed as “rapidly cleared from the circulation”. Besides, in [5], the Mechanical allodynia entry is “alleviated mechanical allodynia” and the Thermal hyperalgesia result is given as “alleviated”. The Stability in blood entry in series [6] is “stable in blood in vitro”. Besides, in series [7], the “Entry into the central nervous system” value is “does not enter the central nervous system” and the “Time to reach the DRG” value is given as at most 30 min. In addition, in series [7] (dorsal root ganglion), the “Stability within the ganglion” value was “at least 24 h”. In [8], the “Tissue level in the liver” value is “high initial levels of NOP46 in the liver”. The 50% inhibitory concentration (IC50) in series [9] is 2 µM. The “Selectivity of kinase inhibition” value in series [10] was “selectively inhibits activated PKG1alpha”.
